The test system of one data set is HIV-1 5e2res strain. The data set is described as follows: Anti-HIV activity against selected 5e2res strain in MT-4 cells. In kind it is cell-based. Particulars: for RF (resistance fold), 5e2res strain: EC50(mutant strain)/EC50(IIIB strain); for EC50: Human immunodeficiency virus 1, MT4, read-out: EC50 5e2res strain.
In a further data set the test system is HIV-1 WT strain (IIIB). In words: Anti-HIV activity against HIV-1 IIIB in MT-4 cells. In kind it is cell-based. To be noted: Human immunodeficiency virus 1, IIIB, MT4, read-out: EC50 IIIB strain.
Another data set deals with HIV-1 5i3res strain. The data set is described as follows: Anti-HIV activity against selected 5i3res strain in MT-4 cells. Type of data set: cell-based. Particulars: for EC50: Human immunodeficiency virus 1, MT4, read-out: EC50 5i3res strain.
The next data set has as its system HIV-1 K103N mutation. To be noted: cited from earlier work.
Data set [1] concerns HIV-1 GH9 (K101P/K103N/V108I). To be noted: cited from earlier work.
The next data set relates to HIV-1 K101P mutation. Particulars: cited from earlier work.
For data set [2], the system named is HIV-1 p5375 (A98G/K101E/E138K/Y181C). In words: Anti-HIV-1 activity against NNRTI-resistant strain p5375 in TZM-bl cells. Type of data set: cell-based. To be noted: Human immunodeficiency virus 1, TZM-bl, read-out: EC50 p5375.
In data set [3] the test system is CYP1A2, CYP2C9, CYP2C19, CYP2D6 (range over isozymes). In words: Cytochrome P450 inhibition assay, ranges over isozymes. In kind it is in vitro ADME. To be noted: human, human liver microsomes. On the technique in general: Liver microsomes are a subcellular fraction often used to study metabolism.
Data set [4] deals with HIV-1 GH9 (K101P/K103N/V108I). In words: Anti-HIV-1 activity against triple-mutant strain GH9 in TZM-bl cells. In kind it is cell-based. To be noted: Human immunodeficiency virus 1, TZM-bl, read-out: EC50 GH9.
Data set [5] has as its system HIV-1 p5735 (K101E/Y181V). The data set is described as follows: Anti-HIV-1 activity against NNRTI-resistant strain p5735 in TZM-bl cells. In kind it is cell-based. To be noted: Human immunodeficiency virus 1, TZM-bl, read-out: EC50 p5735.
Data set [6] concerns HIV-1 p1833 (A98G/K101E/Y181C/G190A). The data set is described as follows: Anti-HIV-1 activity against NNRTI-resistant strain p1833 in TZM-bl cells. In kind it is cell-based. Particulars: Human immunodeficiency virus 1, TZM-bl, read-out: EC50 p1833.
Data set [7] relates to HIV-1 p1579 (E138G/H221Y/F227L/M230L). The data set is described as follows: Anti-HIV-1 activity against NNRTI-resistant strain p1579 in TZM-bl cells. In kind it is cell-based. Particulars: Human immunodeficiency virus 1, TZM-bl, read-out: EC50 p1579.
Data set [8] in a line: Cytotoxicity in TZM-bl cells. Type of data set: cell-based. To be noted: human.

We go through seven compounds from paper PMC12124364 (Science Advances, 2025).

A word on the EC50: it is the concentration needed to bring the measured effect to its halfway point. Take `Cc1cn([C@H]2C[C@H](N=[N+]=[N-])[C@@H](CO)O2)c(=O)[nH]c1=O` [AZT, zidovudine]: the “RF (resistance fold), 5e2res strain” value with HIV-1 5e2res strain is recorded as 1.3. Also, the EC50 was determined as 0.0519 µM with HIV-1 5e2res strain, 0.0409 µM with HIV-1 WT strain (IIIB) and 0.0489 µM with HIV-1 5i3res strain. Besides, in the data set on HIV-1 5i3res strain (EC50(mutant strain)/EC50(IIIB strain)), the “RF (resistance fold), 5i3res strain” value is 1.2.

`O=C1Nc2ccc(Cl)cc2[C@@](C#CC2CC2)(C(F)(F)F)O1` [EFV, efavirenz]: the “reduction in susceptibility by K103N mutation” value in the data set on HIV-1 K103N mutation is “about 20 fold”. Also, the “resistance conferred by triple-mutant strain GH9” value in [1] is listed as “up to 12,931 fold”. Besides, the “reduction in efficacy by K101P mutation alone” value (“reduction in efficacy” below) in the data set with HIV-1 K101P mutation is greater than 50 fold.

In general, IC50 refers to the concentration needed to halve the response being measured. A high value points to weaker potency. Turning to `Cc1cc(C#N)cc(C)c1Oc1nc(Nc2ccc(C#N)cc2)nc(N)c1Br` [ETR, etravirine], the EC50 stood at 0.0376 ± 0.00806 µM in [2]; 0.104 ± 0.0382 µM in data set [4]; 0.0143 ± 0.00507 µM in data set [5]; 0.0111 ± 0.00276 µM in data set [6]; 0.0749 ± 0.0189 µM in data set [7]. In data set [3], the IC50 at 10 min is 0.277 to 12 µM. In addition, the “reduction in efficacy” value with HIV-1 K101P mutation is on record as “about five-fold”.

Regarding `Cc1ccnc2c1NC(=O)c1cccnc1N2C1CC1` [NVP, nevirapine], the “EC50 5e2res strain” value with HIV-1 5e2res strain (MT-4 cells) is “completely inactive”. Further, the “reduction in susceptibility by K103N mutation” value in the data set on HIV-1 K103N mutation was roughly 50 fold. Moreover, the “EC50 5i3res strain” value with HIV-1 5i3res strain (MT-4 cells) is “completely inactive”.

In general, CC50 refers to the concentration at which the toxic effect on the cells reaches its halfway point. Regarding `Cc1cc(/C=C/C#N)cc(C)c1Nc1ccnc(Nc2ccc(C#N)cc2)n1` [RPV, rilpivirine], the EC50 in data set [2] was 0.00107 ± 0.0003 µM; with HIV-1 5e2res strain, 0.0166 µM; in data set [4] it was 1.71 ± 0.339 µM; in [5], 0.151 ± 0.032 µM; in the data set on HIV-1 5i3res strain, 0.0746 µM; in [7] it was 0.00126 ± 0.00038 µM. In data set [8], this compound returned a CC50 at 4 days greater than 54.5 µM. Further, the “resistance conferred by triple-mutant strain GH9” value in data set [1] is given as greater than 162 fold. For the same compound, in the data set on HIV-1 K101P mutation, the “reduction in efficacy” value is on record as “up to 243 fold”.

In the case of `Nc1ccn([C@H]2CC[C@@H](CO)O2)c(=O)n1` [ddC, zalcitabine], in the data set with HIV-1 5e2res strain, the “RF (resistance fold), 5e2res strain” value was 0.8. Further, the figures for the EC50 in the data set with HIV-1 5e2res strain and in the data set with HIV-1 WT strain (IIIB) were 0.69 µM and 0.89 µM, respectively.

Turning to `O=c1[nH]cnc2c1ncn2[C@H]1CC[C@@H](CO)O1` [ddI, didanosine], the figures for the EC50 in the data set on HIV-1 WT strain (IIIB) and in the data set with HIV-1 5i3res strain were 19.7 µM and 8.93 µM, respectively.
